A value given as a limit tells only on which side of the number the result lay.

Assay [1] deals with Psedomonas aeruginosa ATCC 10145 and Staphylococcus aureus ATCC 6538. Description: MBC against aerobic bacteria, 37° C., 24 hour (Example 2). The assay is classed as cell-based. As to the method:
(§1) The synergy indexes reported in the following examples are calculated using the following equation: Synergy Index=Ca/CA+Cb/CB
(§2) Various methods known to those skilled in the art can be used for evaluating biocidal efficacy. In the examples below, aliquots of the treated samples are removed at predetermined time points and the concentration required to achieve a certain level or complete bacterial kill is determined by culture-based methods including serial dilution. In some examples, the method is based or adapted (e.g., for high temperature testing or for the presence of sulfide) from the methodology described in international application PCT/US08/075,755, filed Sep. 10, 2008, which is incorporated herein by reference.
A sterile NaCl solution (0.85%) is contaminated with Psedomonas aeruginosa ATCC 10145 and Staphylococcus aureus ATCC 6538 at a final bacterial concentration of ˜10^6 CFU/ml. Aliquots of this contaminated water are then treated with biocide solution (single or in combination) at various concentrations.

Assay [2] relates to oil field isolated anaerobic SRB consortium. The assay can be described thus: MBC against anaerobic SRB consortium, 40° C., 24 hour (Example 1). The assay is classed as cell-based, anaerobic sulfate-reducing bacteria (SRB). As to the method:
as §1, §2
Inside an anaerobic chamber, a deaerated sterile salt solution (3.1183 g of NaCl, 1.3082 mg of NaHCO3, 47.70 mg of KCl, 72.00 mg of CaCl2, 54.49 mg of MgSO4, 172.28 mg of Na2SO4, 43.92 mg of Na2CO3 in 1 L water) is contaminated with an oil field isolated anaerobic SRB consortium at final bacterial concentrations of 10^6-10^7 CFU/mL. Aliquots of this contaminated water are then treated with biocide solution (single or in combination) at various concentrations.

Assay [3] relates to mixed bacteria consortium (Pseudomonas aeruginosa ATCC 10145, Pseudomonas aeruginosa ATCC 15422, Enterobacter aerogenes ATCC 13048, Escherichia coli ATCC …). Description: Re-challenge test against aerobic mixed bacteria consortium (Example 3). The assay is classed as cell-based. The settings on record: ambient temperature; for Dose required for ≧4 log10 bacteria reduction (ppm), CTAC: CTAC alone or CTAC part of DBNPA/CTAC combination; for Dose required for ≧4 log10 bacteria reduction (ppm), DBNPA: DBNPA alone or DBNPA part of DBNPA/CTAC combination. The procedure: as §1, §2
(§3) DBNPA and CTAC is added to a sterile solution of synthetic surface water (CaCl2 0.2203 g, MgSO4 0.1847 g, NaHCO3 0.1848 g, DI water 1 L) both alone and in various combinations. An initial inoculum of a mixed bacteria consortium (Pseudomonas aeruginosa ATCC 10145, Pseudomonas aeruginosa ATCC 15422, Enterobacter aerogenes ATCC 13048, Escherichia coli ATCC 11229, Klebsiella pneumoniae ATCC 8308, Staphylococcus aureus ATCC 6538, Salmonella choleraesuis ATCC 10708) is added to each biocidal solution at a final concentration of 5×10^6 CFU/mL. After 2, 6 and 13 days, the biocidal solutions are re-challenged with the same bacteria consortium to a final concentration of 5×10^4 CFU/mL of additional bacteria. All treatments are incubated at ambient temperatures. The results are shown in Table 7 which reports the biocide concentrations required to achieve a ≧4 log10 kill reduction in microorganisms.

For assay [4], the system named is oil field isolated anaerobic SRB consortium. Description: Anaerobic bacteria under sulfide-rich and multiple challenge conditions (Example 4). The assay is classed as cell-based, anaerobic sulfate-reducing bacteria (SRB). As to conditions: room temperature, daily challenge with SRB and 10 ppm sulfide ion. As to the method:
as §1
Various methods known to those skilled in the art can be used for evaluating biocidal efficacy. In the examples below, aliquots of the treated samples are removed at predetermined time points and the concentration required to achieve a certain level or complete bacterial kill is determined by culture-based methods including serial dilution. In some examples, the method is based or adapted (e.g., for high temperature testing or for the presence of sulfide) from the methodology described in international application PCT/US08/075,755, filed Sep. […]
Inside an anaerobic chamber, biocide solutions of DBNPA, CTAC, and DBNPA/CTAC combinations at various concentrations are prepared in a salt solution (3.1183 g of NaCl, 1.3082 mg of NaHCO3, 47.70 mg of KCl, 72.00 mg of CaCl2, 54.49 mg of MgSO4, 172.28 mg of Na2SO4, 43.92 mg of Na2CO3 in 1 L water). […] The viable bacteria left in the mixtures is determined at different incubation times up to 7 days, using a serial dilution method. Bacterial log reduction is then calculated. The biocidal efficacy is determined by selecting the lowest biocide concentration required to achieve at least a 99.9% bacterial reduction for all three of the following time points: 2 hour, 1 day, and 7 days. Synergy index is then calculated.

The subject of assay [5] is mixed bacteria consortium (Pseudomonas aeruginosa ATCC 10145, Pseudomonas aeruginosa ATCC 15422, Enterobacter aerogenes ATCC 13048, Escherichia coli ATCC …). Description: Ternary DBNPA, CTAC and bronopol combination, re-challenge test against mixed bacteria consortium (Example 6). As to conditions: for Dose required for >4 log10 bacterial reduction vs. control, CTAC: CTAC alone or CTAC part of DBNPA:bnpd:CTAC combination; for Dose required for >4 log10 bacterial reduction vs. control, bnpd: bnpd alone or bnpd part of DBNPA:bnpd:CTAC combination; for Dose required for >4 log10 bacterial reduction vs. control, DBNPA: DBNPA alone or DBNPA part of DBNPA:bnpd:CTAC combination. The assay is classed as cell-based, mixed aerobic bacteria. The procedure:
as §1, §2
as §3, with “DBNPA, bronopol, and” for “DBNPA and”, “CTAC are” for “CTAC is”, “g, deionized” for “g, DI”, “Table 10” for “Table 7”

Assay [6] deals with oil field isolated anaerobic SRB consortium. Description: Anaerobic bacteria under high temperature, sulfide-rich and re-challenge conditions (Example 5). The settings on record: 80° C., daily challenge with SRB and 10 ppm sulfide ion. The assay is classed as cell-based, anaerobic sulfate-reducing bacteria (SRB). As to the method:
as §1, §2
Inside an anaerobic chamber, biocide solutions of DBNPA, CTAC, and DBNPA/CTAC combinations at various concentrations are prepared in a salt solution (3.1183 g of NaCl, 1.3082 mg of NaHCO3, 47.70 mg of KCl, 72.00 mg of CaCl2, 54.49 mg of MgSO4, 172.28 mg of Na2SO4, 43.92 mg of Na2CO3 in 1 L water). […] After heating at 80 C for 2 hours, biocidal efficacy is evaluated against the field SRB consortium at 40° C. for 2 h. The same samples, after heating for 1 day to 7 days at 80 C, are evaluated against the field SRB consortium at 40 C for 24 h. […]

[7] abbreviates: tris nitro alone or tris nitro part of DBNPA/tris nitro combination.
[8] abbreviates: HHT alone or HHT part of DBNPA/HHT combination.
The mark [9] stands for this setting: Day 3 after initial inoculation.
Where [10] appears, read: Day 20 after initial inoculation.
Setting [11] is: CTAC alone or CTAC part of DBNPA/CTAC combination.
Where [12] appears, read: Day 27 after initial inoculation.
[13] abbreviates: DBNPA alone or DBNPA part of DBNPA/CTAC combination.
Where [14] appears, read: DBNPA alone or DBNPA part of DBNPA/HHT combination.
Where [15] appears, read: DBNPA alone or DBNPA part of DBNPA/tris nitro combination.

Regarding `O=[N+]([O-])C(CO)(CO)CO` [tris nitro, tris(hydroxymethyl)nitromethane], the results for the “Dosage required for complete bacterial reduction (ppm), tris nitro” value in assay [1] (setting [7]) and in assay [2] (setting [7]) were 104.6 ppm and 29.6 ppm, respectively.

Consider `OCCN1CN(CCO)CN(CCO)C1` [HHT, hexahydro-1,3,5-tris(2-hydroxyethyl)-s-triazine], for which the “Dosage required for complete bacterial reduction (ppm), HHT” value turned out to be 94.2 ppm in assay [1] (setting [8]) and 113.8 ppm in assay [2] (setting [8]).

Take `ClC=CC[N+]12CN3CN(CN(C3)C1)C2` [CTAC, 1-(3-chloroallyl)-3,5,7-triaza-1-azoniaadamantane]: the “Dose required for ≧4 log10 bacteria reduction (ppm), CTAC” value in assay [3] (setting [9]) and in assay [3] (setting [10]) was greater than 750 ppm in each case. For the same compound, the “Dosage required for complete bacterial reduction (ppm), CTAC” value is listed as greater than 159 ppm in assay [1] (setting [11]) and 87.5 ppm in assay [2] (setting [11]). Moreover, the “Lowest biocide concentration required for ≧99.9% bacterial reduction for 2 h, 1 day, and 7 days (ppm), CTAC” value in assay [4] (setting [11]) is reported as greater than 360.0 ppm; in assay [6] (setting [11]), 180 ppm. The “Dose required for >4 log10 bacterial reduction vs. control, CTAC” value in assay [5] (setting [9]) and in assay [5] (setting [12]) was greater than 750 in each case.

On to `O=[N+]([O-])C(Br)(CO)CO` [bnpd, 2-bromo-2-nitropropane-1,3-diol], for which the “Dose required for >4 log10 bacterial reduction vs. control, bnpd” value was 32 in assay [5] (setting [9]) and greater than 200 in assay [5] (setting [12]).

As to `N#CC(Br)(Br)C(N)=O` [DBNPA, 2,2-dibromo-3-nitrilopropionamide], the “Dose required for ≧4 log10 bacteria reduction (ppm), DBNPA” value in assay [3] (setting [9]) is on record as greater than 167 ppm; in assay [3] (setting [10]), greater than 250 ppm. Also, the “Dosage required for complete bacterial reduction (ppm), DBNPA” value in assay [1] (setting [13]) is reported as 8.9 ppm; in assay [1] (setting [14]), 8.9 ppm; in assay [1] (setting [15]), 9.9 ppm; in assay [2] (setting [13]), 9.1 ppm; in assay [2] (setting [14]), 7.0 ppm; in assay [2] (setting [15]), 8.9 ppm. In addition, the “Lowest biocide concentration required for ≧99.9% bacterial reduction for 2 h, 1 day, and 7 days (ppm), DBNPA” value in assay [4] (setting [13]) is 60.0 ppm; in assay [6] (setting [13]), greater than 120 ppm. Besides, the results for the “Dose required for >4 log10 bacterial reduction vs. control, DBNPA” value in assay [5] (setting [9]) and in assay [5] (setting [12]) were less than 12 and greater than 75, respectively.

The values are drawn from patent publication US9451768B2, “Biocidal compositions and methods of use” (priority 2009, dated 2016).
